# Results published in patent publication US11065294B2, “Composition including oriental medicine to treat neoplastic disease” (COMPREHENSIVE AND INTEGRATIVE MEDICINE INSTITUTE, priority 2013, dated 2021).
# “And” between values parts separate entries of the source, which are not always exact repeats. Equal values may be shown once. Where a name gives a salt, the structure may show the parent alone. Marks after values point to notes of the source that are not given here.
# Columns and labels:
# NCI-H520 cell xenograft = assay: NCI-H520 xenograft nude mice, 35 days oral: gefitinib 120 mg/kg single, bojungikgi-tang 400 mg/kg single, or co-administered within 5 minutes; type: in vivo, Balb/c Slc nu/nu mice; conditions: co-adm BJIKT 100/200/400 mg/kg in order
# Description: A total of 73 nude mice were purchased, and NCI-H520 cells were xenografted into a subcutaneous region of a right hip each of 67 mice. 14 days after the grafting, the xenografted mice having a tumor volume of 100 mm^3 or more were selected, and divided into seven groups of 6 mice each to be used in the experiment as listed in Table 16. Separately, 6 mice were prepared as the vehicle control.
# Then, the NCI-H520 cells were cultured to a density of 1.0×10^8 cells/ml to prepare a tumor cell suspension, and 0.2 mL (2×10^7 cells/head) of the NCI-H520 tumor cell suspension was injected into subcutaneous regions of right back buttocks of the mice to form a solid tumor mass.
# in vivo [1] = conditions: male, SD, rat, plasma, po, 50 mg/kg
# in vivo [2] = conditions: male, SD, rat, plasma, po, 50 mg/kg; for AUC(0-inf): AUC0-inf of gefitinib; for AUC(0-t): AUC0-t of gefitinib; for Cmax: Cmax of gefitinib; for MRT inf: MRTinf of gefitinib; for half-life: t1/2 of gefitinib
# MCF-7 cell xenograft = assay: MCF-7 xenograft nude mice, 35 days oral: tamoxifen 20 mg/kg single, JEKHT 500 mg/kg single, or co-administered within 5 minutes; tumor, immune and cachexia readouts; type: in vivo, Balb/c Slc nu/nu mice
# Source text: In Example 3, as laboratory animals, Balb/c Slc nu/nu mice (5-week-old females, SLC, Shizuoka, Japan) were used. Seventy three nude mice were purchased, and sixty seven xenografted mice having a tumor volume of 50 mm^3 or more 14 days after MCF-7 cells were xenografted into subcutaneous parts of a right hip of each mouse were selected, and divided into groups of seven mice each.
# The xenografted MCF-7 cells were maintained by sub-culturing the MCF-7 cells (American Type Culture Collection Center, VA, USA) using 10% fetal bovine serum (FBS)-added RPMI 1640 (Gibco, Grand Island, N.Y., USA) media in a 5% C02 incubator at 37° C., and a solid tumor mass was formed by preparing a tumor cell suspension to have a cell concentration of 1.0×10^8 cell/ml, and grafting 0.2 ml (2×10^7 cell/mouse) of the MCF-7 tumor cell suspension on a subcutaneous part of a right hip of each mouse.
# in vivo [3] = conditions: male, SD, rat, plasma
# in vivo [4] = conditions: male, SD, rat, plasma; for Cmax / MRT inf / Tmax / half-life: oral; for Cmax: Blood Cmax of tamoxifen; for MRT inf: Blood MRTinf of tamoxifen; for Tmax: Blood Tmax of tamoxifen; for half-life: Blood t1/2 of tamoxifen; for AUC(0-inf) / AUC(0-t): po, 50 mg/kg; for AUC(0-inf): Blood tamoxifen AUC0-inf; for AUC(0-t): Blood tamoxifen AUC0-t
# HepG2 cells [5] = assay: HepG2 cell viability, MTT method (BJIKT, sorafenib); type: cell-based; conditions: Homo sapiens
# HepG2 cells [6] = assay: HepG2 cell viability, MTT method (YMJHT, sorafenib); type: cell-based; conditions: Homo sapiens
# [7] = mouse, in vivo
# [8] = sorafenib 100 mg/kg single
# [9] = co-adm JEKHT 125/250/500 mg/kg in order
# [10] = co-adm JEKHT dose given in table
# [11] = submandibular lymph node, JEKHT dose = table row
# [12] = tumor mass, JEKHT dose = table row
structure (smiles),measurement,setting,value
COc1cc2ncnc(Nc3ccc(F)c(Cl)c3)c2cc1OCCCN1CCOCC1 [Gefitinib],"Absolute periovarian fat pad weight, change vs TB control",NCI-H520 cell xenograft,−3.06%
same,"Absolute spleen weight, change vs TB control",NCI-H520 cell xenograft,14.01%
same,"Absolute submandibular lymph node weight, change vs TB control",NCI-H520 cell xenograft,50.00%
same,Absolute tumor weight change,NCI-H520 cell xenograft,−39.14%
same,"Blood IFN-γ content, change vs TB control",NCI-H520 cell xenograft,6.77%
same,"Blood IL-6 content, change vs TB control",NCI-H520 cell xenograft,−12.33%
same,"Body weight gain, change vs tumor-bearing control",NCI-H520 cell xenograft,68.23%
same,"COX-2 immunoreactive cells in tumor tissue, change vs TB control",NCI-H520 cell xenograft,−42.48%
same,"Caspase-3 immunoreactive cells in tumor tissue, change vs TB control",NCI-H520 cell xenograft,168.67%
same,"Diameter of splenic white pulp, change vs TB control",NCI-H520 cell xenograft,6.51%
same,"Follicles in submandibular lymph node cortex, change vs TB control",NCI-H520 cell xenograft,15.00%
same,"Mean white adipocyte diameter, change vs TB control",NCI-H520 cell xenograft,−7.01%
same,"Number of splenic white pulps, change vs TB control",NCI-H520 cell xenograft,22.22%
same,"PARP immunoreactive cells in tumor tissue, change vs TB control",NCI-H520 cell xenograft,125.47%
same,"Percentage of apoptotic cells in tumor tissue, change vs TB control",NCI-H520 cell xenograft,131.78%
same,"Percentage of tumor cells in tumor tissue, change vs TB control",NCI-H520 cell xenograft,−36.78%
same,"Periovarian fat pad thickness, change vs TB control",NCI-H520 cell xenograft,2.11%
same,"Spleen IL-1β content, change vs TB control",NCI-H520 cell xenograft,8.36%
same,"Spleen IL-10 content, change vs TB control",NCI-H520 cell xenograft,5.16%
same,"Spleen TNF-α content, change vs TB control",NCI-H520 cell xenograft,6.73%
same,"Splenic NK cell activity, change vs TB control",NCI-H520 cell xenograft,4.93%
same,"Submandibular lymph node cortex thickness, change vs TB control",NCI-H520 cell xenograft,16.19%
same,"TNF-α immunoreactive cells in tumor tissue, change vs TB control",NCI-H520 cell xenograft,12.63%
same,"Total spleen thickness, change vs TB control",NCI-H520 cell xenograft,−6.99%
same,"Total submandibular lymph node thickness, change vs TB control",NCI-H520 cell xenograft,7.42%
same,"Tumor volume variation, change vs tumor-bearing control",NCI-H520 cell xenograft,−55.42%
same,"iNOS immunoreactive cells in tumor tissue, change vs TB control",NCI-H520 cell xenograft,9.02%
same,AUC(0-inf),in vivo [1],16400 ± 9310 ng·h/mL
same,AUC(0-t),in vivo [1],14600 ± 9450 ng·h/mL
same,Cmax,in vivo [1],2160 ± 760 ng/mL
same,half-life,in vivo [1],2.59 ± 0.76 h
same,AUC(0-inf),in vivo [2]; 9th administration,16900 ± 4140 ng·h/mL
same,AUC(0-inf),in vivo [2]; first gefitinib administration,20200 ± 4610 ng·h/mL
same,AUC(0-t),in vivo [2]; 9th administration,13500 ± 2780 ng·h/mL
same,AUC(0-t),in vivo [2]; first gefitinib administration,15400 ± 2240 ng·h/mL
same,Cmax,in vivo [2]; 9th administration,3120 ± 770 ng/mL
same,Cmax,in vivo [2]; first gefitinib administration,3010 ± 480 ng/mL
same,MRT inf,in vivo [2]; 9th administration,5.71 ± 1.04 h
same,MRT inf,in vivo [2]; first gefitinib administration,5.94 ± 1.36 h
same,half-life,in vivo [2]; 9th administration,2.38 ± 0.88 h
same,half-life,in vivo [2]; first gefitinib administration,2.82 ± 0.92 h
"CC/C(=C(\c1ccccc1)c1ccc(OCCN(C)C)cc1)c1ccccc1 [Tamoxifen, Tamoxifen citrate]",Periovarian fat pad total thickness,MCF-7 cell xenograft; JEKHT dose = table row,0.28 ± 0.10^a mm/central regions
same,Spleen total thickness,MCF-7 cell xenograft; JEKHT dose = table row,1.15 ± 0.13^a mm/central regions
same,Spleen white pulp diameters,MCF-7 cell xenograft; JEKHT dose = table row,298.11 ± 61.88^a μm/white pulp
same,Spleen white pulp numbers,MCF-7 cell xenograft; JEKHT dose = table row,4.14 ± 1.07^a /mm^2
same,Submandibular lymph node total thickness,MCF-7 cell xenograft; JEKHT dose = table row,487.38 ± 83.96^a μm/central regions
same,"Blood IFN-γ content, change vs tumor-bearing control",MCF-7 cell xenograft; [9],−14.77%
same,"Blood IL-6 content, change vs tumor-bearing control",MCF-7 cell xenograft; [9],21.68%
same,"Body weight gain, change vs tumor-bearing control",MCF-7 cell xenograft; [9],−11162.72%
same,"Peritoneal NK cell activity, change vs tumor-bearing control",MCF-7 cell xenograft; [9],−26.39%
same,"Splenic IL-1β content, change vs tumor-bearing control",MCF-7 cell xenograft; [9],−10.82%
same,"Splenic IL-10 content, change vs tumor-bearing control",MCF-7 cell xenograft; [9],−33.33%
same,"Splenic NK cell activity, change vs tumor-bearing control",MCF-7 cell xenograft; [9],−12.73%
same,"Splenic TNF-α content, change vs tumor-bearing control",MCF-7 cell xenograft; [9],−23.94%
same,"Tumor volume variation, change vs tumor-bearing control",MCF-7 cell xenograft; [9],−66.73%
same,Periovarian fat pad absolute weight,MCF-7 cell xenograft; [10],0.009 ± 0.003 g
same,Spleen absolute weight,MCF-7 cell xenograft; [10],0.049 ± 0.009 g
same,Submandibular lymph node absolute weight,MCF-7 cell xenograft; [10],0.002 ± 0.001 g
same,Tumor mass absolute weight,MCF-7 cell xenograft; [10],0.047 ± 0.010 g
same,Tumor volume Changes [B − A],MCF-7 cell xenograft; [10],125.92 ± 40.49^a mm^3
same,"Tumor volume, Sacrifice [B]",MCF-7 cell xenograft; [10],184.85 ± 37.69^a mm^3
same,White adipocyte diameters,"MCF-7 cell xenograft; periovarian fat pad, JEKHT dose = table row",19.89 ± 5.09^a μm
same,Cortex lymphoid cell follicle numbers,MCF-7 cell xenograft; [11],4.14 ± 1.68^gj /mm^2
same,Cortex thickness,MCF-7 cell xenograft; [11],255.43 ± 46.37^a μm/lymph node
same,TNF-positive cells,MCF-7 cell xenograft; [11],6.57 ± 2.51^gj cells/mm^2 of lymph node
same,Apoptotic cell percentages,MCF-7 cell xenograft; [12],27.50 ± 6.62%
same,Tumor cell volume,MCF-7 cell xenograft; [12],51.00 ± 10.37 %/mm^2
same,AUC(0-inf),in vivo [3]; oral,6860 ± 2920 ng·h/mL
same,AUC(0-t),in vivo [3]; oral,5270 ± 1790 ng·h/mL
same,Cmax,in vivo [3]; oral,364 ± 122 ng/mL
same,MRT inf,in vivo [3]; oral,14.9 ± 6.29 h
same,Tmax,in vivo [3]; oral,5.6 ± 2.19 h
same,half-life,"in vivo [3]; po, 50 mg/kg",9.56 ± 4.16 h
same,Cmax,in vivo [4]; 8th administration,770 ± 220 ng/mL
same,Cmax,in vivo [4]; first tamoxifen administration,280 ± 160 ng/mL
same,MRT inf,in vivo [4]; 8th administration,28.5 ± 8.53 h
same,MRT inf,in vivo [4]; first tamoxifen administration,18.1 ± 5.71 h
same,Tmax,in vivo [4]; 8th administration,3.4 ± 0.89 h
same,Tmax,in vivo [4]; first tamoxifen administration,3.6 h
same,half-life,in vivo [4]; 8th administration,19.6 ± 5.84 h
same,half-life,in vivo [4]; first tamoxifen administration,13.1 ± 5.77 h
same,AUC(0-inf),in vivo [4]; 8th administration,21500 ± 3040 ng·h/mL
same,AUC(0-inf),in vivo [4]; first tamoxifen administration,4860 ± 2870 ng·h/mL
same,AUC(0-t),in vivo [4]; 8th administration,12400 ± 2660 ng·h/mL
same,AUC(0-t),in vivo [4]; first tamoxifen administration,3230 ± 1790 ng·h/mL
"CNC(=O)c1cc(Oc2ccc(NC(=O)Nc3ccc(Cl)c(C(F)(F)F)c3)cc2)ccn1 [Sorafenib, sorafenib]",IC50,HepG2 cells [5],2.8 µM and 1.3 µg/mL
same,IC50,HepG2 cells [6],2.81 µM and 1.31 µg/mL
same,Any abnormal signs,"[7]; male, ICR, 28 days",0/7 (0%)
same,Normal appearance,"[7]; male, ICR, 28 days",7/7 (100%)
same,Adrenal G L absolute weight,[7],0.003 ± 0.002
same,BASO (%),[7],0.30 ± 0.20%
same,"Body weight gain, Day 0~Day 14",[7],6.63 ± 1.62
same,"Body weight gain, Day 14~Day 27",[7],2.11 ± 1.51
same,Brain absolute weight,[7],0.471 ± 0.022
same,Epididymis L absolute weight,[7],0.036 ± 0.004^a
same,HCT,[7],41.89 ± 2.13%
same,HGB,[7],18.54 ± 0.88 g/dL
same,Heart absolute weight,[7],0.155 ± 0.011
same,Kidney L absolute weight,[7],0.285 ± 0.042
same,LN L absolute weight,[7],0.002 ± 0.001^a
same,LYM (%),[7],70.74 ± 6.08^c %
same,Liver absolute weight,[7],1.234 ± 0.149
same,Lung absolute weight,[7],0.172 ±0 .010
same,MCH,[7],20.89 ± 0.88 pg
same,MCV,[7],47.13 ± 2.47 fL
same,MONO (%),[7],5.26 ± 1.55%
same,NEU (%),[7],17.36 ± 5.16^c %
same,PLT,[7],804.86 ± 99.24 K/μL
same,Pancreas S absolute weight,[7],0.156 ± 0.022
same,RBC,[7],8.89 ± 0.39 M/μL
same,RET,[7],0.51 ± 0.33 ea/1000
same,Spleen absolute weight,[7],0.063 ± 0.007^e
same,Testis L absolute weight,[7],0.097 ± 0.006^a
same,Thymus absolute weight,[7],0.027 ± 0.004^a
same,WBC,[7],1.81 ± 0.53^a K/μL
same,"Deaths, Days of treatment period (Day 0 to 27)",[8],0
same,"Deaths, Termination date (28th day of administration)",[8],0
